Measured values taken from patent US6239132A, “Thrombin inhibitors” (Merck & Co., Inc., priority 2000, dated 2001).

What follows are molecules tested against human α-thrombin (Homo sapiens, UniProt P00734) (assay: In vitro assay for determining proteinase inhibition: human α-thrombin). Conditions: 25° C., 0.05M TRIS buffer pH 7.4, 0.15M NaCl, 0.1% PEG; sar-PR-pna (or Z-GPR-afc for potent inhibitors); read-out: Inhibitory activity (Ki).
Format: biochemical
Protocol: Examples of this group are listed below in Table 1. […] Values are as determined according to the in vitro assay described later in the specification.
In Vitro Assay for Determining Proteinase Inhibition
Assays of human α-thrombin and human trypsin were performed by the methods substantially as described in Thrombosis Research, Issue No. 70, page 173 (1993) by S. D. Lewis et al.
The assays were carried out at 25° C. in 0.05M TRIS buffer pH 7.4, 0.15M NaCl, 0.1% PEG. Trypsin assays also contained 1 mM CaCl2.
Concentrations of stock solutions of Z-GPR-afc were determined from measurements of absorbance at 380 nm of the 7-amino-4-trifluoromethyl coumarin produced upon complete hydrolysis of an aliquot of the stock solution by thrombin.
Times required to achieve equilibration between enzyme and inhibitor were determined in control experiments. Initial velocities of product formation in the absence (Vo) or presence of inhibitor (Vi) were measured. Assuming competitive inhibition, and that unity is negligible compared Km /[S], […] (where [S], [I], and e respectively represent the total concentrations, of substrate, inhibitor and enzyme), the equilibrium constant (Ki) for dissociation of the inhibitor from the enzyme can be obtained from the dependence of Vo /Vi on [I] shown in equation 1: […]

| Ki [nM] | Structure (SMILES) |
| --- | --- |
| < 100 | Cc1cc2c(c(=O)n1CC(=O)NCc1cc3cc[nH]c3cn1)NC(=O)OC2(C)C |
| < 100 | Cc1cc2c(c(=O)n1CC(=O)NCc1cc3cc[nH]c3cn1)NC(=O)OC2(CC1CC1)CC1CC1 |
| < 100 | CCC1(CC)OC(=O)Nc2c1cc(C)n(CC(=O)NCc1ccc(N)nc1C)c2=O |
| < 100 | Cc1cc2c(c(=O)n1CC(=O)NCc1cccc(Cl)c1)NC(=O)OC2(C(C)C)C(C)C |
